Assay results reported in ChEMBL document CHEMBL1201862, “PubChem BioAssay data set” (2004).
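Values below derive from 48-hour exposures of cells grown in 96-well plates, with endpoints linearly interpolated between the two concentrations bracketing the appropriate inhibition level. At the GI50, growth is halved.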 Active and inactive are the calls of the source. No stated cut-off is given here; in the data, active = GI50 up to about 1.1 µM and inactive = higher. *1 amine or outer side, *2 acyl side, *3 side chain or, on linkers, in order; H or OH if unused. Where a SMILES comes first, the peptide text is derived from it. Bridges are numbered along the chain shown (N, C = ends). Roman numbers before positions name the chains, in order. [ ]: non-standard residue; d: D form. Actinocin(9to1) = Cc1c2oc3c(C)ccc(C(=O)[*:1])c3nc-2c(C(=O)[*:2])c(N)c1=O; NMeV = CN[CH](C(=O)O)C(C)C; Sar = CNCC(=O)O

Assays:
Test in all cases: NCI anticancer screen, dose series, 48 h
[1] = test system: A549
[2] = test system: MDA-MB-231
[3] = test system: SNB-19
[4] = test system: SF-295
[5] = test system: KM12
[6] = test system: UACC-62
[7] = test system: OVCAR-3
[8] = test system: CCRF-CEM
[9] = test system: NCI/ADR-RES
[10] = test system: NCI-H226
[11] = test system: COLO 205
[12] = test system: DU-145
[13] = test system: MOLT-4
[14] = test system: HOP-62
[15] = test system: HCT-116
[16] = test system: SK-OV-3
[17] = test system: Malme-3M
[18] = test system: NCI-H522
[19] = test system: U-251

| Structure (SMILES) | GI50 [1] | GI50 [2] | GI50 [3] | GI50 [4] | GI50 [5] | GI50 [6] | GI50 [7] | GI50 [8] | GI50 [9] | GI50 [10] | GI50 [11] | GI50 [12] | GI50 [13] | GI50 [14] | GI50 [15] | GI50 [16] | GI50 [17] | GI50 [18] | GI50 [19] |
| --- | --- | --- | --- | --- | --- | --- | --- | --- | --- | --- | --- | --- | --- | --- | --- | --- | --- | --- | --- |
| CCCCCC(O)[C@H]1C(=O)C[C@@H](O[Si](C)(C)C(C)(C)C)[C@@H]1/C=C/CCOCc1ccccc1 (stereo partly specified) | 18 µM (inactive) | 29.2 µM (inactive) | 15 µM (inactive) | 2.39 µM (inactive) | 5.41 µM (inactive) | 11.8 µM (inactive) | 13.7 µM (inactive) | > 55.5 µM (inactive) | 12.1 µM (inactive) | 14 µM (inactive) | 16 µM (inactive) | 20 µM (inactive) | 4.46 µM (inactive) | 17.3 µM (inactive) | 6.9 µM (inactive) | 16.8 µM (inactive) | 15.3 µM (inactive) | 3.88 µM (inactive) | 12.1 µM (inactive) |
| O=c1ssc(Cl)c1Cl | > 10 µM (inactive) | > 10 µM (inactive) | > 10 µM (inactive) | > 10 µM (inactive) | > 10 µM (inactive) | > 10 µM (inactive) | > 10 µM (inactive) | 1.63 µM (inactive) | > 10 µM (inactive) | > 10 µM (inactive) | 2.11 µM (inactive) | > 10 µM (inactive) | 2.39 µM (inactive) | > 10 µM (inactive) | > 5.98 µM (inactive) | > 10 µM (inactive) | > 6.11 µM (inactive) | 4.05 µM (inactive) | > 10 µM (inactive) |
| COc1cc(CNCc2cc(OC)c(OC)c(OC)c2)cc(OC)c1OC | > 10 µM (inactive) | > 10 µM (inactive) | > 10 µM (inactive) | > 10 µM (inactive) | > 10 µM (inactive) | > 10 µM (inactive) | > 10 µM (inactive) | 2.37 µM (inactive) | > 10 µM (inactive) | > 10 µM (inactive) | > 10 µM (inactive) | > 10 µM (inactive) | > 5.7 µM (inactive) | > 10 µM (inactive) | > 10 µM (inactive) | > 10 µM (inactive) | > 10 µM (inactive) | > 4.88 µM (inactive) | > 10 µM (inactive) |
| O=c1[nH]nc(Cc2ccc(Cl)cc2)n1/N=C/c1ccc([N+](=O)[O-])o1 | 3.42 µM (inactive) | 3.38 µM (inactive) | 3.98 µM (inactive) | 2.77 µM (inactive) | 2.03 µM (inactive) | 2.87 µM (inactive) | 0.53 µM (active) | 1.76 µM (inactive) | 3.16 µM (inactive) | 9.18 µM (inactive) | 1.84 µM (inactive) | 3.64 µM (inactive) | 1.55 µM (inactive) | 2.77 µM (inactive) | 1.29 µM (inactive) | 5.22 µM (inactive) | 1.46 µM (inactive) | 1 µM (active) | 4.12 µM (inactive) |
| C[C@H](CC[C@@H](O)C(C)(C)O)[C@H]1CC[C@@]2(C)[C@@H]3CC=C4[C@@H](CC[C@H](OC5OC(CO)C(O)C(O)C5O)C4(C)C)[C@]3(C)C(=O)C[C@]12C (stereo partly specified) | 37.2 µM (inactive) | > 100 µM (inactive) | 62.5 µM (inactive) | 90.4 µM (inactive) | > 100 µM (inactive) | 58.1 µM (inactive) | 65 µM (inactive) | 14.6 µM (inactive) | > 100 µM (inactive) | > 100 µM (inactive) | 48.9 µM (inactive) | 39 µM (inactive) | 21.1 µM (inactive) | 36.8 µM (inactive) | 45.3 µM (inactive) | 31 µM (inactive) | 49.4 µM (inactive) | 37.6 µM (inactive) | 33.6 µM (inactive) |
| O=C1c2ccccc2-c2c1c1ccccc1c(=O)n2-c1cccnc1 | 11.5 µM (inactive) | > 59.7 µM (inactive) | 24.6 µM (inactive) | 27 µM (inactive) | > 100 µM (inactive) | 32 µM (inactive) | > 71.3 µM (inactive) | > 10 µM (inactive) | 45.8 µM (inactive) | 61.5 µM (inactive) | > 68.1 µM (inactive) | > 100 µM (inactive) | 3.78 µM (inactive) | 12.1 µM (inactive) | 27.3 µM (inactive) | 42.6 µM (inactive) | > 95.3 µM (inactive) | 10.5 µM (inactive) | 22.7 µM (inactive) |
| CC(=O)OCC1OC(n2c(C)c(C(C)=O)c(-c3cccc4ccccc34)c(C#N)c2=S)C(OC(C)=O)C(OC(C)=O)C1OC(C)=O (stereo unspecified) | > 100 µM (inactive) | > 100 µM (inactive) | > 100 µM (inactive) | > 100 µM (inactive) | > 100 µM (inactive) | > 100 µM (inactive) | > 100 µM (inactive) | > 100 µM (inactive) | > 100 µM (inactive) | > 100 µM (inactive) | > 100 µM (inactive) | > 100 µM (inactive) | > 100 µM (inactive) | > 100 µM (inactive) | > 100 µM (inactive) | > 100 µM (inactive) | > 100 µM (inactive) | > 100 µM (inactive) | > 100 µM (inactive) |
| O=c1[nH]c(Br)nc2[nH]nnc12 | > 100 µM (inactive) | 34.7 µM (inactive) | > 100 µM (inactive) | 72.8 µM (inactive) | > 100 µM (inactive) | 15.9 µM (inactive) | > 100 µM (inactive) | 7.55 µM (inactive) | 10.4 µM (inactive) | > 100 µM (inactive) | > 100 µM (inactive) | 14.1 µM (inactive) | 2.73 µM (inactive) | 17.7 µM (inactive) | 32 µM (inactive) | 39.3 µM (inactive) | 6.95 µM (inactive) | > 100 µM (inactive) | 68.7 µM (inactive) |
| CCCCCCCCCCCCCCCC(=O)Nc1ccn(C2OC(CO)C(O)C2O)c(=O)n1 (stereo unspecified) | 2.62 µM (inactive) | > 62.8 µM (inactive) | 15.2 µM (inactive) | 51.1 µM (inactive) | 29.4 µM (inactive) | 24.2 µM (inactive) | 34.2 µM (inactive) | 0.0308 µM (active) | 7.23 µM (inactive) | 30.5 µM (inactive) | 37.9 µM (inactive) | 3.38 µM (inactive) | 0.131 µM (active) | 0.887 µM (active) | 1.21 µM (inactive) | 16.7 µM (inactive) | 4.22 µM (inactive) | 2.25 µM (inactive) | 12.4 µM (inactive) |
| O=c1ssc2ncccc12 | 14.9 µM (inactive) | 11.9 µM (inactive) | 39.2 µM (inactive) | 33.5 µM (inactive) | 20.1 µM (inactive) | 11.6 µM (inactive) | 18.4 µM (inactive) | 31.5 µM (inactive) | 32.6 µM (inactive) | 0.212 µM (active) | 17.9 µM (inactive) | 33.7 µM (inactive) | 64 µM (inactive) | 20.7 µM (inactive) | 15.2 µM (inactive) | > 100 µM (inactive) | 19.8 µM (inactive) | 7.8 µM (inactive) | 15.7 µM (inactive) |
| Cc1c2oc3c(C)ccc(C(=O)NC4C(=O)NC(C(C)C)C(=O)N5CCCC5C(=O)N(C)CC(=O)N(C)C(C(C)C)C(=O)OC4C)c3nc-2c(C(=O)NC2C(=O)NC(C(C)C)C(=O)N3CCCC3C(=O)N(C)CC(=O)N(C)C(C(C)C)C(=O)OC2C)c(N)c1=O (stereo unspecified) (I: TVP[Sar][NMeV] / II: TVP[Sar][NMeV]; ester I:1-I:C, II:1-II:C; linker I:N-II:N via Actinocin(9to1); configuration not given here) | 0.000199 µM (active) | 0.00494 µM (active) | 0.000112 µM (active) | 0.000522 µM (active) | < 0.0001 µM (active) | < 0.0001 µM (active) | 0.00105 µM (active) | < 0.0001 µM (active) | 0.0499 µM (active) | 0.000891 µM (active) | 0.000161 µM (active) | 0.000359 µM (active) | < 0.0001 µM (active) | 0.000486 µM (active) | < 0.0001 µM (active) | 0.0017 µM (active) | 0.000273 µM (active) | < 0.0001 µM (active) | < 0.0001 µM (active) |
| CC(C)=CCC[C@@H](C)[C@H]1CC[C@@]2(C)[C@@H]3CC[C@H]4C(C)(C)[C@@H](O)CC[C@@]45C[C@@]35CC[C@]12C [CYCLOARTENOL] | 21.6 µM (inactive) | > 44.9 µM (inactive) | 58.7 µM (inactive) | > 48.2 µM (inactive) | > 56.8 µM (inactive) | 44.4 µM (inactive) | > 100 µM (inactive) | 23 µM (inactive) | 23.4 µM (inactive) | 26.5 µM (inactive) | > 60 µM (inactive) | 59.7 µM (inactive) | > 51.9 µM (inactive) | 24.9 µM (inactive) | 23.5 µM (inactive) | 53.5 µM (inactive) | > 100 µM (inactive) | 20.7 µM (inactive) | 15.5 µM (inactive) |
| Oc1ccc(Cl)cc1Sc1cc(Cl)ccc1O [FENTICLOR] | 26.8 µM (inactive) | 15 µM (inactive) | 12.9 µM (inactive) | 13.5 µM (inactive) | 17.5 µM (inactive) | 5.66 µM (inactive) | 3.75 µM (inactive) | 5.92 µM (inactive) | 12.5 µM (inactive) | 20.5 µM (inactive) | 20.7 µM (inactive) | 14.2 µM (inactive) | 7.53 µM (inactive) | 16.7 µM (inactive) | 7.11 µM (inactive) | 20.5 µM (inactive) | 6.67 µM (inactive) | 3.1 µM (inactive) | 8.53 µM (inactive) |
| O=C1c2ccccc2-n2c1nc1ccccc1c2=O [TRYPTANTHRIN] | 2.59 µM (inactive) | 16.7 µM (inactive) | 25 µM (inactive) | 4.29 µM (inactive) | 6.62 µM (inactive) | 3.69 µM (inactive) | 4.54 µM (inactive) | 9.08 µM (inactive) | 22.3 µM (inactive) | 30.9 µM (inactive) | 12.8 µM (inactive) | 10.7 µM (inactive) | 7.94 µM (inactive) | 12.1 µM (inactive) | 5.86 µM (inactive) | > 100 µM (inactive) | 13.4 µM (inactive) | 15.3 µM (inactive) | 3.34 µM (inactive) |
